In brackets after ≈: the same amount, converted by molar mass. Each block holds one molecule with its values, some of them ahead of it.
Key:
Assay in all cases: ≥ marks a high value that may be exact or a test limit, other limits are often not marked, values filed in µg/mL are converted to µM
[1] = tested on: Staphylococcus aureus ATCC 25923
[2] = tested on: Escherichia coli ATCC 25922
[3] = tested on: Bacillus subtilis ATCC 6633
[4] = tested on: Candida albicans ATCC 20032
[5] = tested on: Staphylococcus epidermidis ATCC 12228
[6] = tested on: Staphylococcus aureus Cowan 1
[7] = tested on: Acinetobacter baumannii ATCC 19606
[8] = tested on: Pseudomonas syringae pv. tabaci 1918NCPPB
Escherichia coli D21 = tested on: Escherichia coli D21
[9] = tested on: Schizosaccharomyces pombe
[10] = tested on: Yersinia pseudotuberculosis YPIII
[11] = tested on: Streptococcus pyogenes ATCC 21547
[12] = tested on: Enterococcus faecalis ATCC 29212
Acinetobacter junii RT-4 = tested on: Acinetobacter junii RT-4
Saccharomyces cerevisiae = tested on: Saccharomyces cerevisiae
Bacillus megaterium Bm11 = tested on: Bacillus megaterium Bm11
[13] = tested on: Pseudomonas aeruginosa ATCC 27853
[14] = tested on: Pseudomonas aeruginosa ATCC 15692
[15] = tested on: Candida albicans ATCC 10231
Staphylococcus capitis 1 = tested on: Staphylococcus capitis 1
[16] = tested on: Batrachochytrium dendrobatidis JEL-197
[17] = tested on: Escherichia coli ATCC 25726
[18] = tested on: Pseudomonas aeruginosa PAO239
[19] = tested on: Streptococcus mutans ATCC 10449
[20] = tested on: Fusobacterium nucleatum NCTC 10562
[21] = tested on: Candida albicans NCTC 3179
[22] = tested on: Enterococcus faecalis NCTC 12697
Pseudomonas aeruginosa = tested on: Pseudomonas aeruginosa
[23] = tested on: Candida albicans ATCC 90028
Staphylococcus aureus = tested on: Staphylococcus aureus
Escherichia coli = tested on: Escherichia coli
[24] = tested on: Salmonella enterica subsp. enterica serovar Typhi
Bacillus subtilis = tested on: Bacillus subtilis
Enterobacter cloacae = tested on: Enterobacter cloacae
[25] = tested on: Acinetobacter baumannii 2982
[26] = tested on: Staphylococcus aureus 936
[27] = tested on: Acinetobacter baumannii 4956
[28] = tested on: Pseudomonas aeruginosa 2760
[29] = tested on: Staphylococcus aureus 725
[30] = tested on: Acinetobacter baumannii 1980
Escherichia coli 850 = tested on: Escherichia coli 850
[31] = tested on: Klebsiella pneumoniae ATCC 700603
Escherichia coli 780 = tested on: Escherichia coli 780
[32] = tested on: Pseudomonas aeruginosa 9132
[33] = tested on: Acinetobacter baumannii I NM8

MIC [1]: 3.52 µM (≈ 9.4 µg/mL)
MIC [2]: 7.03 µM (≈ 18.8 µg/mL)
MIC [3]: 28.1 µM (≈ 75 µg/mL)
MIC [4]: ≥ 37.4 µM
Compound: CC[C@H](C)[C@H](NC(=O)CN)C(=O)NCC(=O)N[C@H](C(=O)N[C@@H](CCCCN)C(=O)N[C@H](C(=O)N[C@@H](CC(C)C)C(=O)NCC(=O)NCC(=O)N[C@H](C(=O)N[C@@H](CCCCN)C(=O)N[C@@H](C)C(=O)N[C@@H](C)C(=O)N[C@@H](CC(C)C)C(=O)N[C@@H](CCCCN)C(=O)NCC(=O)N[C@@H](C)C(=O)N[C@@H](CC(C)C)C(=O)N[C@@H](CCCCN)C(=O)N[C@@H](CCC(=O)O)C(=O)N[C@@H](CC(C)C)C(=O)N[C@@H](C)C(=O)N[C@@H](CO)C(=O)N[C@H](C(=O)N[C@@H](Cc1ccc(O)cc1)C(=O)N[C@H](C(=O)N[C@@H](CC(N)=O)C(N)=O)C(C)C)[C@@H](C)O)C(C)C)[C@@H](C)CC)[C@@H](C)O [GIGTKILGGVKAALKGALKELASTYVN]

MIC [5]: 3 µM (≈ 4.88 µg/mL)
MIC [6]: 6 µM (≈ 9.75 µg/mL)
MIC [7]: 6 µM (≈ 9.75 µg/mL)
MIC [1]: 6 µM (≈ 9.75 µg/mL)
MIC [8]: 12 µM (≈ 19.5 µg/mL)
MIC (Escherichia coli D21): ≥ 48 µM
MIC [9]: 6 µM (≈ 9.75 µg/mL)
MIC [2]: > 48 µM
MIC [10]: 6 µM (≈ 9.75 µg/mL)
MIC [11]: 6 µM (≈ 9.75 µg/mL)
MIC [12]: 12 µM (≈ 19.5 µg/mL)
MIC (Acinetobacter junii RT-4): 6 µM (≈ 9.75 µg/mL)
MIC (Saccharomyces cerevisiae): 12 µM (≈ 19.5 µg/mL)
MIC (Bacillus megaterium Bm11): 3 µM (≈ 4.88 µg/mL)
MIC [13]: > 48 µM
MIC [14]: ≥ 48 µM
MIC [15]: 12 µM (≈ 19.5 µg/mL)
MIC (Staphylococcus capitis 1): 6 µM (≈ 9.75 µg/mL)
Compound: CC(C)C[C@H](NC(=O)[C@H](Cc1c[nH]c2ccccc12)NC(=O)[C@H](CCCN=C(N)N)NC(=O)CNC(=O)[C@H](CC(C)C)NC(=O)[C@H](CC(C)C)NC(=O)[C@H](CCCCN)NC(=O)[C@H](CO)NC(=O)[C@H](CC(C)C)NC(=O)[C@H](Cc1c[nH]c2ccccc12)NC(=O)[C@H](CCC(N)=O)NC(=O)[C@H](CC(C)C)NC(=O)[C@@H](N)CC(C)C)C(N)=O [LLQWLSKLLGRWL]

MIC [1]: 40 µM (≈ 51.4 µg/mL)
MIC [16]: ≥ 100 µM
MIC [17]: ≥ 160 µM
Compound: CSCC[C@H](NC(=O)[C@H](C)NC(=O)[C@H](CC(C)C)NC(=O)[C@@H]1CCCN1C(=O)[C@H](CC(C)C)NC(=O)[C@@H](N)Cc1ccccc1)C(=O)N[C@@H](C)C(=O)N[C@@H](CC(C)C)C(=O)NCC(=O)N[C@@H](CCCCN)C(=O)N[C@@H](CC(C)C)C(=O)N[C@@H](CC(C)C)C(N)=O [FLPLAMALGKLL]

MIC [18]: ≥ 100 µM
MIC [19]: ≥ 50 µM
MIC [20]: 12.5 µM (≈ 30.2 µg/mL)
MIC [1]: > 200 µM
MIC [2]: > 200 µM
MIC [21]: ≥ 100 µM
MIC [17]: ≥ 50 µM
MIC [13]: > 100 µM
MIC [22]: ≥ 100 µM
Compound: CC[C@H](C)[C@H](NC(=O)CNC(=O)CNC(=O)[C@@H](NC(=O)[C@H](Cc1ccccc1)NC(=O)[C@H](C)NC(=O)[C@H](CCCCN)NC(=O)CNC(=O)[C@H](Cc1ccccc1)NC(=O)[C@H](CCCCN)NC(=O)CNC(=O)[C@H](CC(C)C)NC(=O)[C@H](CO)NC(=O)[C@H](Cc1cnc[nH]1)NC(=O)[C@H](C)NC(=O)[C@H](Cc1ccccc1)NC(=O)[C@H](CCC(=O)O)NC(=O)[C@H](CCCCN)NC(=O)[C@@H](NC(=O)CN)[C@@H](C)CC)C(C)C)C(=O)N[C@@H](CC(C)C)C(=O)N[C@@H](CC(N)=O)C(=O)N[C@@H](CCC(N)=O)C(=O)O [GIKEFAHSLGKFGKAFVGGILNQ]

MIC (Pseudomonas aeruginosa): 7.79 µM (≈ 16 µg/mL)
MIC [1]: 1.95 µM (≈ 4 µg/mL)
MIC [23]: ≥ 62.4 µM
MIC [2]: 7.79 µM (≈ 16 µg/mL)
MIC (Staphylococcus aureus): 31.2 µM (≈ 64 µg/mL)
MIC (Escherichia coli): 15.6 µM (≈ 32 µg/mL)
MIC [24]: 1.95 µM (≈ 4 µg/mL)
MIC (Bacillus subtilis): 31.2 µM (≈ 64 µg/mL)
MIC [13]: 31.2 µM (≈ 64 µg/mL)
MIC (Enterobacter cloacae): 15.6 µM (≈ 32 µg/mL)
Compound: CC(C)C[C@H](NC(=O)[C@H](CCCCN)NC(=O)[C@H](CCCN=C(N)N)NC(=O)[C@H](Cc1ccccc1)NC(=O)[C@H](Cc1ccccc1)NC(=O)[C@H](CCCCN)NC(=O)[C@H](CCCCN)NC(=O)[C@H](Cc1ccccc1)NC(=O)[C@H](CCCN=C(N)N)NC(=O)[C@H](CCCCN)NC(=O)[C@@H](NC(=O)[C@@H](N)CC(C)C)C(C)C)C(=O)N[C@@H](CCCCN)C(=O)N[C@@H](CCCCN)C(=O)N[C@@H](CO)C(=O)N[C@H](C(N)=O)C(C)C [LVKRFKKFFRKLKKSV]

MIC [25]: 2.37 µM (≈ 4 µg/mL)
MIC [26]: 19 µM (≈ 32 µg/mL)
MIC [7]: 4.74 µM (≈ 8 µg/mL)
MIC [27]: 9.49 µM (≈ 16 µg/mL)
MIC [28]: ≥ 75.9 µM
MIC [29]: 4.74 µM (≈ 8 µg/mL)
MIC [2]: 4.74 µM (≈ 8 µg/mL)
MIC [30]: 9.49 µM (≈ 16 µg/mL)
MIC (Escherichia coli 850): 9.49 µM (≈ 16 µg/mL)
MIC [31]: 25 µM (≈ 42.1 µg/mL)
MIC (Escherichia coli 780): 4.74 µM (≈ 8 µg/mL)
MIC [32]: ≥ 38 µM
MIC [17]: 6 µM (≈ 10.1 µg/mL)
MIC [13]: 25 µM (≈ 42.1 µg/mL)
MIC [33]: 3 µM (≈ 5.06 µg/mL)
Compound: CC(C)C[C@H](NC(=O)[C@@H](NC(=O)[C@H](CC(N)=O)NC(=O)[C@H](C)NC(=O)CNC(=O)[C@H](CC(C)C)NC(=O)[C@H](CCCN=C(N)N)NC(=O)[C@H](CC(C)C)NC(=O)[C@H](C)NC(=O)[C@H](CCCCN)NC(=O)CNC(=O)[C@H](CC(C)C)NC(=O)[C@H](CC(C)C)NC(=O)[C@H](CO)NC(=O)CNC(=O)[C@H](Cc1ccccc1)NC(=O)CN)C(C)C)C(N)=O [GFGSLLGKALRLGANVL]

From DBAASP
